{
  "source": "patent US7390875B2",
  "about": "“Method for binding, in solution, a peptide and a lipophilic vector and uses thereof” (Institut Pasteur de Lille, priority 2000, dated 2008)",
  "test_system": "class II molecules of the MHC at the surface of COLO 205 cells",
  "assay": "Quantification of the expression of class II MHC molecules at the surface of COLO 205 cells after incubation with lipopeptides (flow cytometry)",
  "assay_type": "cell-based, human",
  "conditions": "Table IIIb; for Ratio (mean fluorescence treated vs non-treated cells): L243 antibody / ALEXA 488",
  "description": "2) Protocol for Quantification of the Expression of Molecules of Class II of the Major Histocompatibility Complex (MHC) at the Surface of the Cells.\nThe COLO 205 cells (human cell line obtained from a carcinoma of the colon) come from the ATCC (American Type Culture Collection) cell bank. They are cultivated in an RPMI 1640 medium (Gibco BRL, Courbevoie, France) with 10% of fetal calf serum (FCS) and 5 mM of sodium pyruvate, and incubated at 37° C. in the presence of 5% of CO2. […]\nThe surface expression of the class II molecules of the MHC is analysed using flow cytometry with a Coulter EPICS II cytometer, at the rate of 10,000 events per sample. The fluorescence intensity observed is directly proportional to the quantity of class II molecules of the MHC present on the surface of the cells. The mean fluorescence value observed for the non-treated cells and for the treated cells (“Mean” column in Table III) makes it possible to calculate a ratio between the mean fluorescence value of the non-treated cells and the mean fluorescence value for the treated cells (“Ratio” column in Table III). The control consists in incubating the cells in the absence of lipopeptides.",
  "note": "Starred links: 1 amine or outer side, 2 acyl side, 3 side chain; linkers in the order of their positions; H or OH if unused. Hydrazinoacetyl = O=C(CNN[*:1])[*:2]",
  "data": [
    {"substance": "L-MU-IFNγc: presumably peptide Mu-IFNγ c (SEQ ID NO: 12) coupled with palmitoyl vector (IIIa); synthesis not described (H-K(Hydrazinoacetyl)AKFEVNNPQVQRQAFNELIRVVHQLLPESSLRKRKRSR-NH2; also: palmitoyl vector (IIIa) coupled by hydrazone bond)", "values": [
      {"measurement": "Ratio (mean fluorescence treated vs non-treated cells)", "setting": "5 μM lipopeptide", "result": 2.14},
      {"measurement": "Mean (mean fluorescence value)", "setting": "5 μM lipopeptide, L243 antibody revealed by second antibody coupled to ALEXA 488, control mean 0.607", "result": 1.3},
      {"measurement": "Ratio (mean fluorescence treated vs non-treated cells)", "setting": "10 μM lipopeptide", "result": 2.83},
      {"measurement": "Mean (mean fluorescence value)", "setting": "10 μM lipopeptide, L243 antibody / ALEXA 488, control mean 0.607", "result": 1.72},
      {"measurement": "Ratio (mean fluorescence treated vs non-treated cells)", "setting": "35 μM lipopeptide", "result": 24.8},
      {"measurement": "Mean (mean fluorescence value)", "setting": "35 μM lipopeptide, L243 antibody / ALEXA 488, control mean 0.607", "result": 15.1}
    ]}
  ]
}
